{"source": "paper PMC5026937", "about": "(Antiviral research, 2016)", "test_system": "A/Switzerland/9715293/2013 (H3N2)", "assay_type": "cell-based, Influenza A virus"}
{"smiles": "CCC(CC)O[C@@H]1C=C(C(=O)O)C[C@H](N)[C@H]1NC(C)=O", "note": "[Oseltamivir carboxylate, oseltamivir carboxylate]", "values": [{"measurement": "EC50 increase on serial passage", "value": "more than ten-fold"}]}
